Where a SMILES comes first, the peptide text is derived from it. [ ]: non-standard residue; d: D form. The star is where a group is joined. ξ: configuration not given here. NMeW = CN[C@@H](Cc1c[nH]c2ccccc12)C(=O)O; Palmitoyl = CCCCCCCCCCCCCCCC(=O)*; ξαMeV = CC(C)C(C)(N)C(=O)O; ξαMeS = CC(N)(CO)C(=O)O; GABA = NCCCC(=O)O

Data on eleven compounds can be found in patent US12441768B2, “Compositions and methods for treating endometriosis” (EndoMet Biosciences, Inc., priority 2018, dated 2025).

In one experiment the target is T1, β-catenin (Homo sapiens, UniProt P35222).
T1 sequence (P35222 1-781): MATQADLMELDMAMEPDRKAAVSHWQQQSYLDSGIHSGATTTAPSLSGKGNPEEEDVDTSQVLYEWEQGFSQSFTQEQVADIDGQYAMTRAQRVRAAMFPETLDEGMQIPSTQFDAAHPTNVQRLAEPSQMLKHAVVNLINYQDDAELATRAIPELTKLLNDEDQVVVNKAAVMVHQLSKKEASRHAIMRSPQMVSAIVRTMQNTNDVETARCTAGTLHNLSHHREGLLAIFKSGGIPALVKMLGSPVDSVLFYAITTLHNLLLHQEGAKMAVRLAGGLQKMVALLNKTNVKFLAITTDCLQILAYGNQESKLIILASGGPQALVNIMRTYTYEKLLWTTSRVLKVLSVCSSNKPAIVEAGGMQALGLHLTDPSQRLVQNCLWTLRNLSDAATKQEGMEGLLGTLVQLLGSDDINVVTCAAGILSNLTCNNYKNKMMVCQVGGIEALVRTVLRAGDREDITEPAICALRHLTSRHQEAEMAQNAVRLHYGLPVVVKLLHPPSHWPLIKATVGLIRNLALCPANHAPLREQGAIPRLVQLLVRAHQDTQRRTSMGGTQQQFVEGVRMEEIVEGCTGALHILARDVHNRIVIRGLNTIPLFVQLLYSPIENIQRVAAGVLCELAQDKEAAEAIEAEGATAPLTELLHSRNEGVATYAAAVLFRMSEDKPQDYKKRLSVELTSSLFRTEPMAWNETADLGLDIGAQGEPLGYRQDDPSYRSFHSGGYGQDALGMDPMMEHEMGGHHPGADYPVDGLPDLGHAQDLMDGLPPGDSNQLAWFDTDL
As to the kind of experiment: KD50 measurement using competitive fluorescence polarization (FP) with labelled TCF4. Type of experiment: binding. Particulars: fluorescence polarization, β-catenin; for Kd: read-out: β-Cat FP KD. The essentials: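 5 nM labelled TCF4 was combined with 100 nM β-catenin at room temperature, then inhibitor was titrated in serial dilutions from 10 nM to 30 uM. Polarization was read at excitation 470 nm, emission 520 nm; displacement lowers the signal. Three independent experiments.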

In experiment [1] the target is Wnt-responsive promoter (TCF/LEF). In words: Wnt-dependent luciferase reporter assay. Format: cell-based, murine. As for the experimental part:
The luciferase reporter assay is commonly used as a tool to study gene expression at the transcriptional level. Peptides from libraries described herein were characterized for ability to suppress transcription in cells with luciferase expression controlled by a Wnt-responsive promoter. Peptides were added to cells transfected with luciferase gene downstream of a Wnt-responsive promoter. Cells were stimulated with Wnt3a protein and incubated with peptides from libraries described herein. Luminescence was recorded to determine the peptides with the highest β-catenin-inhibiting activity. EC50 values were calculated based on the inhibition of luminescence and expressed as concentration (uM) in Table 5.
Peptides were assessed for their ability to inhibit Wnt signaling. Murine 3T3 fibroblasts that express luciferase under a Wnt-responsive promoter (TCF/LEF) (Enzo Life Sciences, Farmingdale, NY) were stimulated with Wnt3a in the presence of increasing concentrations of peptide inhibitor (Hit 1: SEQ ID NO:217, Hit 2: SEQ ID NO:224, Hit 3: SEQ ID NO:228, Hit 4: SEQ ID NO:227, Hit 5: SEQ ID NO:220, Hit 6: SEQ ID NO:168. Hit 7: SEQ ID NO:226) or with vehicle control (FIG. 2A).

As to `CC[C@H](C)[C@H]1NC(=O)[C@@H](CO)NC(=O)[C@@H](CCC(=O)O)NC(=O)[C@H](Cc2c[nH]c3ccccc23)NC(=O)CCCCn2cc(nn2)CC(C(N)=O)NC(=O)[C@H](Cc2c[nH]c3ccccc23)NC(=O)[C@H](C(C)C)NC(=O)[C@H](CCCNC(=N)N)NC(=O)[C@@H](CCC(N)=O)NC(=O)[C@@H](C(C)C)NC(=O)[C@@H](Cc2cnc[nH]2)NC(=O)[C@H](CCC(=O)O)NC(=O)[C@H](CC(=O)O)NC(=O)[C@H](CC(C)C)NC1=O` (stereo partly shown) [compound 33], at β-catenin, the Kd is over 30000 nM. This compound also showed an EC50 in experiment [1] of over 30 µM.
Consider `CC[C@H](C)[C@H](NC(=O)[C@H](CO)NC(=O)[C@H](CCC(=O)O)NC(=O)[C@H](Cc1c[nH]c2ccccc12)NC(=O)[C@@H](N)CCSC)C(=O)N[C@@H](CC(C)C)C(=O)N[C@@H](CC(=O)O)C(=O)N[C@@H](CCC(=O)O)C(=O)N[C@@H](Cc1c[nH]cn1)C(=O)NC(C)(C(=O)N[C@@H](CCC(N)=O)C(=O)N[C@@H](CCCNC(=N)N)C(=O)N[C@H](C(=O)N[C@@H](Cc1c[nH]c2ccccc12)C(=O)NCC(N)=O)C(C)C)C(C)C` (stereo partly shown) [compound 34] (HELM PEPTIDE1{M.W.E.S.I.L.D.E.H.[CC(C)C(C)(N[*:1])C(=O)[*:2]].Q.R.V.W.G.[am]}$$$$V2.0), for which, at β-catenin, the “β-Cat FP Hill slope” value came out at 0.92 and the equilibrium dissociation constant (Kd) was under 400 nM. The EC50 in experiment [1] was over 30 µM.
On to `CC[C@H](C)[C@H](NC(=O)C(C)(CO)NC(=O)[C@H](CCC(=O)O)NC(=O)[C@H](Cc1c[nH]c2ccccc12)NC(=O)[C@@H](N)CCSC)C(=O)N[C@@H](CC(C)C)C(=O)N[C@@H](CC(=O)O)C(=O)N[C@@H](CCC(=O)O)C(=O)N[C@@H](Cc1c[nH]cn1)C(=O)N[C@H](C(=O)N[C@@H](CCC(N)=O)C(=O)N[C@@H](CCCNC(=N)N)C(=O)N[C@H](C(=O)N[C@@H](Cc1c[nH]c2ccccc12)C(=O)NCC(N)=O)C(C)C)C(C)C` (stereo partly shown) [compound 35] (HELM PEPTIDE1{M.W.E.[CC(CO)(N[*:1])C(=O)[*:2]].I.L.D.E.H.V.Q.R.V.W.G.[am]}$$$$V2.0), for which, at β-catenin, the “β-Cat FP Hill slope” value is recorded as 0.96 and the Kd was under 400 nM. The compound also had an EC50 in experiment [1] of over 30 µM.
Turning to `CC[C@H](C)[C@H](NC(=O)[C@H](CO)NC(=O)[C@H](CCC(=O)O)NC(=O)[C@H](Cc1c[nH]c2ccccc12)N(C)C(=O)[C@@H](N)Cc1c[nH]c2ccccc12)C(=O)N[C@@H](CC(C)C)C(=O)N[C@@H](CC(=O)O)C(=O)N[C@@H](CCC(=O)O)C(=O)N[C@@H](Cc1c[nH]cn1)C(=O)N[C@H](C(=O)N[C@@H](CCC(N)=O)C(=O)N[C@@H](CCCNC(=N)N)C(=O)N[C@H](C(=O)N[C@@H](Cc1c[nH]c2ccccc12)C(=O)NCC(N)=O)C(C)C)C(C)C` [compound 36] (HELM PEPTIDE1{W.[meW].E.S.I.L.D.E.H.V.Q.R.V.W.G.[am]}$$$$V2.0), on β-catenin, the “β-Cat FP Hill slope” value was determined as 0.87 and the dissociation constant (Kd) was under 400 nM. Also, the EC50 in experiment [1] was over 30 µM.
Taken in the same sequence, the figures for `CC[C@H](C)[C@H](NC(=O)[C@H](CO)NC(=O)[C@H](CCC(=O)O)NC(=O)[C@H](Cc1c[nH]c2ccccc12)N(C)C(=O)[C@H](Cc1c[nH]c2ccccc12)NC)C(=O)N[C@@H](CC(C)C)C(=O)N[C@@H](CC(=O)O)C(=O)N[C@@H](CCC(=O)O)C(=O)N[C@@H](Cc1c[nH]cn1)C(=O)N[C@H](C(=O)N[C@@H](CCC(N)=O)C(=O)N[C@@H](CCCNC(=N)N)C(=O)N[C@H](C(=O)N[C@@H](Cc1c[nH]c2ccccc12)C(=O)NCC(N)=O)C(C)C)C(C)C` [compound 37] (HELM PEPTIDE1{[meW].[meW].E.S.I.L.D.E.H.V.Q.R.V.W.G.[am]}$$$$V2.0) were 0.7, under 400 nM and over 30 µM.
`CC[C@H](C)[C@H](NC(=O)C(C)(CO)NC(=O)[C@H](CCC(=O)O)NC(=O)[C@H](Cc1c[nH]c2ccccc12)N(C)C(=O)[C@@H](N)Cc1c[nH]c2ccccc12)C(=O)N[C@@H](CC(C)C)C(=O)N[C@@H](CC(=O)O)C(=O)N[C@@H](CCC(=O)O)C(=O)N[C@@H](Cc1c[nH]cn1)C(=O)NC(C)(C(=O)N[C@@H](CCC(N)=O)C(=O)N[C@@H](CCCNC(=N)N)C(=O)N[C@H](C(=O)N[C@@H](Cc1c[nH]c2ccccc12)C(=O)NCC(N)=O)C(C)C)C(C)C` (stereo partly shown) [compound 38] (HELM PEPTIDE1{W.[meW].E.[CC(CO)(N[*:1])C(=O)[*:2]].I.L.D.E.H.[CC(C)C(C)(N[*:1])C(=O)[*:2]].Q.R.V.W.G.[am]}$$$$V2.0): at β-catenin, the “β-Cat FP Hill slope” value was 0.9 and the Kd was under 400 nM. Further, the EC50 in experiment [1] is over 30 µM.
As to `CC[C@H](C)[C@H](NC(=O)[C@H](CO)NC(=O)[C@H](CCC(=O)O)NC(=O)[C@H](Cc1c[nH]c2ccccc12)N(C)C(=O)[C@@H](N)Cc1c[nH]c2ccccc12)C(=O)N[C@@H](CC(C)C)C(=O)N[C@@H](CC(=O)O)C(=O)N[C@@H](CCC(=O)O)C(=O)N[C@@H](Cc1c[nH]cn1)C(=O)NC(C)(C(=O)N[C@@H](CCC(N)=O)C(=O)N[C@@H](CCCNC(=N)N)C(=O)N[C@H](C(=O)N[C@@H](Cc1c[nH]c2ccccc12)C(=O)NCC(N)=O)C(C)C)C(C)C` (stereo partly shown) [compound 39] (HELM PEPTIDE1{W.[meW].E.S.I.L.D.E.H.[CC(C)C(C)(N[*:1])C(=O)[*:2]].Q.R.V.W.G.[am]}$$$$V2.0), at β-catenin, the “β-Cat FP Hill slope” value was found to be 0.89 and the dissociation constant (Kd) was under 400 nM. This compound displayed a half-maximal effective concentration (EC50) in experiment [1] of over 30 µM.
In the case of `CCCCCCCCCCCCCCCC(=O)NCC(=O)N[C@@H](Cc1c[nH]c2ccccc12)C(=O)N(C)[C@@H](Cc1c[nH]c2ccccc12)C(=O)N[C@@H](CCC(=O)O)C(=O)NC(C)(CO)C(=O)N[C@H](C(=O)N[C@@H](CC(C)C)C(=O)N[C@@H](CC(=O)O)C(=O)N[C@@H](CCC(=O)O)C(=O)N[C@@H](Cc1c[nH]cn1)C(=O)NC(C)(C(=O)N[C@@H](CCC(N)=O)C(=O)N[C@@H](CCCNC(=N)N)C(=O)N[C@H](C(=O)N[C@@H](Cc1c[nH]c2ccccc12)C(=O)O)C(C)C)C(C)C)[C@@H](C)CC` (stereo partly shown) [compound 398] (Palmitoyl-GW[NMeW]E[ξαMeS]ILDEH[ξαMeV]QRVW-OH), the EC50 in experiment [1] was 7.5 to 15 µM.
The compound `CCCCCCCCCCCCCCCC(=O)NCCCC(=O)N[C@@H](Cc1c[nH]c2ccccc12)C(=O)N(C)[C@@H](Cc1c[nH]c2ccccc12)C(=O)N[C@@H](CCC(=O)O)C(=O)NC(C)(CO)C(=O)N[C@H](C(=O)N[C@@H](CC(C)C)C(=O)N[C@@H](CC(=O)O)C(=O)N[C@@H](CCC(=O)O)C(=O)N[C@@H](Cc1c[nH]cn1)C(=O)NC(C)(C(=O)N[C@@H](CCC(N)=O)C(=O)N[C@@H](CCCNC(=N)N)C(=O)N[C@H](C(=O)N[C@@H](Cc1c[nH]c2ccccc12)C(=O)O)C(C)C)C(C)C)[C@@H](C)CC` (stereo partly shown) [compound 400] ({Palmitoyl-GABA}-W[NMeW]E[ξαMeS]ILDEH[ξαMeV]QRVW-OH) showed an EC50 in experiment [1] of 7.5 to 15 µM.
Turning to `CCCCCCCCCCCC(=O)N[C@@H](Cc1c[nH]c2ccccc12)C(=O)N1CCC[C@H]1C(=O)N[C@@H](CCC(N)=O)C(=O)N[C@@H](CO)C(=O)N[C@H](C(=O)N[C@@H](CC(C)C)C(=O)N[C@@H](CC(=O)O)C(=O)N[C@H]1CCC(=O)NCCCC[C@@H](C(=O)N[C@H](C(=O)N[C@@H](Cc2c[nH]c3ccccc23)C(=O)NCC(N)=O)C(C)C)NC(=O)[C@H](CCC(N)=O)NC(=O)[C@H](C2CCCCC2)NC(=O)[C@H](Cc2c[nH]cn2)NC1=O)[C@@H](C)CC` [compound 473] (HELM PEPTIDE1{[CCCCCCCCCCCC(=O)[*:2]].W.P.Q.S.I.L.D.E.H.[O=C([C@@H](N[*:1])C1CCCCC1)[*:2]].Q.K.V.W.G.[am]}$PEPTIDE1,PEPTIDE1,9:R3-13:R3$$$V2.0), the equilibrium dissociation constant (Kd) on β-catenin was under 400 nM.
On to “H-GGGDDLGANDELISFKDEGEQEEKSSENSSAERDLADVKSSLVNEK-NH2 [compound 266]”, for which, on β-catenin, the “β-Cat FP Hill slope” value worked out at 0.88 and the Kd is under 400 nM.
